Data from PMC3163123 (Bioorganic & medicinal chemistry, 2011).

How the values were obtained:
[1] = target: T1, recombinant wild-type HIV-1 IN (Human immunodeficiency virus type 1 group M subtype B, UniProt P12497); assay: biochemical; type: biochemical
[2] = target: T1, recombinant wild-type HIV-1 IN; assay: Integrase catalytic activity assay, 3′-processing; type: biochemical
H630 colon cancer cells = assay: MTT cytotoxicity assay; type: cell-based; conditions: at the concentration of up to 40 μM

CNC(=O)c1cc(F)ccc1CNC(=O)c1cccc(O)c1O [Compound 5o, N-(4-Fluoro-2-(methylcarbamoyl)benzyl)-2,3-dihydroxybenzamide]
IN / strand transfer inhibitory potency [1]: loss of IN inhibitory potency
IC50 [2]: > 100 µM

O=C(NCC1CCCCC1)c1cccc(O)c1O [Compound 5m, N-(Cyclohexylmethyl)-2,3-dihydroxybenzamide]
IC50 [2]: > 100 µM

O=C(Nc1ccc2[nH]ccc2c1)c1cccc(O)c1O [Compound 5g, 2,3-Dihydroxy-N-(1H-indol-5-yl)benzamide]
IC50 [2]: > 100 µM

O=C(O)c1cccc(OCc2ccccc2)c1O [Compound 3a, 3-(Benzyloxy)-2-hydroxybenzoic acid]
IC50 [1]: > 100 µM
IC50 [2]: > 100 µM

O=C(O)c1ccc(OCc2ccc(F)cc2)cc1O [Compound 3e, 4-(4-Fluorobenzyloxy)-2-hydroxybenzoic acid]
IC50 [1]: > 100 µM
IC50 [2]: > 100 µM

O=C(O)c1c(O)cccc1OCc1ccc(F)cc1 [Compound 3i, 2-(4-Fluorobenzyloxy)-6-hydroxybenzoic acid]
IC50 [1]: > 100 µM
IC50 [2]: > 100 µM

O=C(NCc1ccc(F)cc1)c1cccc(O)c1O [Compound 5a, N-(4-Fluorobenzyl)-2,3-dihydroxybenzamide]
cytotoxicity in H630 cells (H630 colon cancer cells): not cytotoxic

O=C(O)c1c(O)cccc1OCc1ccccc1 [Compound 3h, 2-(Benzyloxy)-6-hydroxybenzoic acid]
IC50 [1]: > 100 µM
IC50 [2]: > 100 µM

O=C(O)c1cccc(OCc2ccc(F)cc2)c1O [Compound 3b, 3-(4-Fluorobenzyloxy)-2-hydroxybenzoic acid]
IC50 [1]: > 100 µM
IC50 [2]: > 100 µM

O=C(NO)c1cccc(OCc2ccc(F)cc2)c1O [Compound 4a, 3-(4-fluorobenzyloxy)-N,2-dihydroxybenzamide]
IC50 [1]: > 100 µM
IC50 [2]: > 100 µM

CN(C)Cc1ccc(C(=O)NCc2ccco2)c(O)c1O [Compound 6b, 4-((Dimethylamino)methyl)-N-(furan-2-ylmethyl)-2,3-dihydroxybenzamide]
IC50 [2]: > 100 µM

O=C(NCc1ccc(F)cc1)c1cc(S(=O)(=O)N2CCCCC2)cc(O)c1O [Compound 5p, N-(4-Fluoro-benzyl)-2,3-dihydroxy-5-(piperidine-1-sulfonyl)-benzamide]
selectivity for the strand transfer over the 3′-processing reaction ([1]; ratio of IC50 values): more than 40 fold

O=C(O)c1c(O)cccc1OCc1ccc2ccccc2c1 [Compound 3j, 2-((Naphthalen-2-yl)methoxy)-6-hydroxybenzoic acid]
IC50 [2]: > 100 µM

O=C(O)c1cc(OCc2ccccc2)ccc1O [Compound 3f, 5-(Benzyloxy)-2-hydroxybenzoic acid]
IC50 [1]: > 100 µM
IC50 [2]: > 100 µM

O=C(O)c1ccc(OCc2ccccc2)cc1O [Compound 3d, 4-(Benzyloxy)-2-hydroxybenzoic acid]
IC50 [1]: > 100 µM
IC50 [2]: > 100 µM

O=C(NC1CCNCC1)c1cccc(O)c1O [Compound 5k, 2,3-Dihydroxy-N-(piperidin-4-yl)benzamide]
IC50 [1]: > 100 µM
IC50 [2]: > 100 µM

O=C(NO)c1ccc(OCc2ccc(F)cc2)cc1O [Compound 4b, 4-(4-fluorobenzyloxy)-N,2-dihydroxybenzamide]
IC50 [2]: > 100 µM

Nc1cccc(C(=O)NCc2ccco2)c1O [Compound 6d, 3-Amino-N-(furan-2-ylmethyl)-2-hydroxybenzamide]
IC50 [1]: > 100 µM
IN / strand transfer inhibitory potency [1]: severe loss of potency
IC50 [2]: > 100 µM

O=C(NCc1ccc(-c2cccs2)cc1)c1cccc(O)c1O [Compound 5j, 2,3-Dihydroxy-N-(4-(thiophen-2-yl)benzyl)benzamide]
IC50 [2]: > 100 µM

CS(=O)(=O)Nc1cc(O)c(O)c(C(=O)NCc2ccc(F)cc2)c1 [Compound 5w, N-(4-Fluorobenzyl)-2,3-dihydroxy-5-(methylsulfonamido)benzamide]
IC50 [2]: > 100 µM

O=C(NCc1ccc(F)cc1)c1cccc(OCc2ccccc2)c1O [Compound 5b, 3-(Benzyloxy)-N-(4-fluorobenzyl)-2-hydroxybenzamide]
IC50 [2]: > 333 µM
cytotoxicity in H630 cells (H630 colon cancer cells): not cytotoxic

O=C(NCc1ccco1)c1cc(S(=O)(=O)N2CCCCC2)cc(O)c1O [Compound 5s, N-(Furan-2-ylmethyl)-2,3-dihydroxy-5-(piperidin-1-ylsulfonyl)benzamide]
IC50 [2]: > 100 µM

O=C(NO)c1cc(OCc2ccc(F)cc2)ccc1O [Compound 4c, 5-(4-fluorobenzyloxy)-N,2-dihydroxybenzamide]
IC50 [2]: > 100 µM

O=C(O)c1cccc(OCc2ccc3ccccc3c2)c1O [Compound 3c, 3-((Naphthalen-2-yl)methoxy)-2-hydroxybenzoic acid]
IC50 [2]: > 100 µM

O=C(NCc1ccc(F)c(F)c1)c1cccc(O)c1O [Compound 5d, N-(3,4-Difluorobenzyl)-2,3-dihydroxybenzamide]
IC50 [2]: > 100 µM

O=C(NO)c1c(O)cccc1OCc1ccc(F)cc1 [Compound 4d, 2-(4-fluorobenzyloxy)-N,6-dihydroxybenzamide]
IC50 [2]: > 100 µM

CN(C)Cc1ccc(C(=O)NCc2ccc(F)cc2)c(O)c1O [Compound 6a, 4-((Dimethylamino)methyl)-N-(4-fluorobenzyl)-2,3-dihydroxybenzamide]
IC50 [2]: > 100 µM

O=C(NCc1cccs1)c1cc(S(=O)(=O)N2CCCCC2)cc(O)c1O [Compound 5v, N-(Thiophen-2-ylmethyl)-2,3-dihydroxy-5-(piperidin-1-ylsulfonyl)benzamide]
IC50 [2]: > 100 µM

O=C(NC1CCCCC1)c1cccc(O)c1O [Compound 5l, N-Cyclohexyl-2,3-dihydroxybenzamide]
IC50 [1]: > 100 µM
IC50 [2]: > 100 µM

O=C(NCc1cccc2ccccc12)c1cccc(O)c1O [Compound 5c, 2,3-Dihydroxy-N-(naphthalen-1-ylmethyl)benzamide]
IC50 [2]: > 100 µM

CNS(=O)(=O)c1cc(O)c(O)c(C(=O)NCc2ccc(F)cc2)c1 [Compound 5q, N-(4-Fluorobenzyl)-2,3-dihydroxy-5-(N-methylsulfamoyl)benzamide]
IC50 [2]: > 100 µM

O=C(O)c1cc(OCc2ccc(F)cc2)ccc1O [Compound 3g, 5-(4-Fluorobenzyloxy)-2-hydroxybenzoic acid]
IC50 [1]: > 100 µM
IC50 [2]: > 100 µM

CNC(=O)Cc1ccccc1CNC(=O)c1cccc(O)c1O [Compound 5n, 2,3-Dihydroxy-N-(2-(2-(methylamino)-2-oxoethyl)benzyl)benzamide]
IC50 [2]: > 100 µM

COc1cc(S(=O)(=O)N2CCCCC2)cc(C(=O)NCc2ccco2)c1O [Compound 6c, N-(Furan-2-ylmethyl)-2-hydroxy-3-methoxy-5-(piperidin-1-ylsulfonyl)benzamide]
IC50 [1]: > 100 µM
IN / strand transfer inhibitory potency [1]: severe loss of potency
IC50 [2]: > 100 µM
